In ChEMBL document CHEMBL1141013, “Novel oxime and oxime ether derivatives of 12,14-dichlorodehydroabietic acid: design, synthesis, and BK channel-opening activity” (Bioorg Med Chem Lett, 2008):

Each molecule was assayed against Calcium-activated potassium channel subunit alpha-1 (Homo sapiens) (UniProt Q12791) (assay: Activation of human BKalpha channel expressed in CHOK1 cells assessed as increase in ionic current at 30 uM by patch clamp method relative to control). Conditions: CHO-K1.
Assay type: cell-based

Calcium-activated potassium channel subunit alpha-1 (Homo sapiens), sequence (Q12791 whole entry): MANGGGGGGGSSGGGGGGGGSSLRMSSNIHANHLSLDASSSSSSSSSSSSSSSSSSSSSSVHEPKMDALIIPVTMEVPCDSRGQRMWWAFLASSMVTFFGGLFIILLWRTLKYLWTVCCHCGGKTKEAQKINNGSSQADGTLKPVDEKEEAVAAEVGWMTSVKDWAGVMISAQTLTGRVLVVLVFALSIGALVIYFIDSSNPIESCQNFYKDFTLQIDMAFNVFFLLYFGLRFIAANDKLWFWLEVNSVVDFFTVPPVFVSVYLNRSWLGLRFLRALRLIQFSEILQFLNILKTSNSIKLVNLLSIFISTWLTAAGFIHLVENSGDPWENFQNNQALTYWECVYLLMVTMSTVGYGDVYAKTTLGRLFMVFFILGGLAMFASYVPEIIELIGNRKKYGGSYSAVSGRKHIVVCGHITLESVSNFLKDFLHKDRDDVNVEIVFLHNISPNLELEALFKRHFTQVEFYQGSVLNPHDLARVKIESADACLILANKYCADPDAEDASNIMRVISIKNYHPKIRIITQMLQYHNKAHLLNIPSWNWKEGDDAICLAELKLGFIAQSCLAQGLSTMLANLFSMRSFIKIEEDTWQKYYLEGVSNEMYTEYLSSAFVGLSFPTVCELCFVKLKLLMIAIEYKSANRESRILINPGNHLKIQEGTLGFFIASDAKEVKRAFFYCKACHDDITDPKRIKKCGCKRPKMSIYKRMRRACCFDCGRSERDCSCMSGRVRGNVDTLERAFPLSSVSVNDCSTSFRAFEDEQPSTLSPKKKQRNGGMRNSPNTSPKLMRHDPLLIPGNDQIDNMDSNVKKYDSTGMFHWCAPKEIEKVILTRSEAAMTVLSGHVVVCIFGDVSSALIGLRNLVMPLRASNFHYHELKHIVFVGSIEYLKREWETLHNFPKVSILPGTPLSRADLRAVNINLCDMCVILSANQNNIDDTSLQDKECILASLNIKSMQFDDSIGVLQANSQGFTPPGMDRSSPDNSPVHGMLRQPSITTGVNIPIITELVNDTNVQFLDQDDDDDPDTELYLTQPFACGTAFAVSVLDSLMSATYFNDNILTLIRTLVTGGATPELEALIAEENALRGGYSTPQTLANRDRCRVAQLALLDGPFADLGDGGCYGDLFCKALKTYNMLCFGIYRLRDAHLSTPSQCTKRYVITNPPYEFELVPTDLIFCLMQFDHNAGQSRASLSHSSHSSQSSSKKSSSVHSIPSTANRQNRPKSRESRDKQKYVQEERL

SMILES | Activity
CC(C)c1c(Cl)cc2c(c1Cl)/C(=N/O)C[C@H]1[C@](C)(C(=O)O)CCC[C@]21C | 242%
CO/N=C1\C[C@H]2[C@](C)(C(=O)O)CCC[C@]2(C)c2cc(Cl)c(C(C)C)c(Cl)c21 | 410%
C#CCO/N=C1\C[C@H]2[C@](C)(C(=O)O)CCC[C@]2(C)c2cc(Cl)c(C(C)C)c(Cl)c21 | 425%
C=CCO/N=C1\C[C@H]2[C@](C)(C(=O)O)CCC[C@]2(C)c2cc(Cl)c(C(C)C)c(Cl)c21 | 566%
O=c1[nH]c2cc(C(F)(F)F)ccc2n1-c1cc(C(F)(F)F)ccc1O | 325%
